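In this assay, cells in 96-well plates receive the compound at five concentrations for 48 hours. Endpoints are linearly interpolated between the surrounding concentrations. GI50: concentration for 50% inhibition of growth.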 The source made the active and inactive calls. Cut-off read from the data, not from the text of the source: active = GI50 up to about 1.1 µM and inactive = higher.
Key:
Test in all cases: NCI tumour cell line growth inhibition, 48 h
PC-3 = system: PC-3
SF-268 = system: SF-268
OVCAR-5 = system: OVCAR-5
UACC-257 = system: UACC-257
MOLT-4 = system: MOLT-4
LOX IMVI = system: LOX IMVI
MDA-MB-231 = system: MDA-MB-231
SK-MEL-5 = system: SK-MEL-5
HCT-15 = system: HCT-15
SF-539 = system: SF-539
CAKI-1 = system: CAKI-1
BT-549 = system: BT-549
HL-60 = system: HL-60
HOP-92 = system: HOP-92
SK-MEL-2 = system: SK-MEL-2
COLO 205 = system: COLO 205
MDA-N = system: MDA-N
NCI-H23 = system: NCI-H23
SNB-75 = system: SNB-75
SK-MEL-28 = system: SK-MEL-28

Structure (SMILES)	GI50 (PC-3)	GI50 (SF-268)	GI50 (OVCAR-5)	GI50 (UACC-257)	GI50 (MOLT-4)	GI50 (LOX IMVI)	GI50 (MDA-MB-231)	GI50 (SK-MEL-5)	GI50 (HCT-15) [µM]	GI50 (SF-539)	GI50 (CAKI-1)	GI50 (BT-549)	GI50 (HL-60)	GI50 (HOP-92)	GI50 (SK-MEL-2)	GI50 (COLO 205)	GI50 (MDA-N)	GI50 (NCI-H23)	GI50 (SNB-75)	GI50 (SK-MEL-28)
CN(C)Cc1cc(C(=O)/C=C/c2cccc(Cl)c2)cc(CN(C)C)c1O	8.99 µM (inactive)	6.62 µM (inactive)	5.69 µM (inactive)	5.56 µM (inactive)	3.43 µM (inactive)	2.24 µM (inactive)	2.75 µM (inactive)	2.41 µM (inactive)	2.84	6.14 µM (inactive)	1.68 µM (inactive)	9.64 µM (inactive)	1.69 µM (inactive)	4.31 µM (inactive)	9.25 µM (inactive)	1.77 µM (inactive)	3.1 µM (inactive)	14.3 µM (inactive)	1.95 µM (inactive)	4.16 µM (inactive)
Oc1cc(O)c2c(c1)OC(c1ccc(O)c(O)c1)C(O)C2c1c(O)cc(O)c2c1OC(c1ccc(O)c(O)c1)C(O)C2 (configuration not stated)	> 100 µM (inactive)	> 100 µM (inactive)	> 100 µM (inactive)	> 100 µM (inactive)		> 100 µM (inactive)	> 100 µM (inactive)	> 100 µM (inactive)	> 100	> 100 µM (inactive)	25.4 µM (inactive)	> 100 µM (inactive)	0.0323 µM (active)	> 100 µM (inactive)	> 100 µM (inactive)	> 100 µM (inactive)	> 100 µM (inactive)	> 100 µM (inactive)	> 100 µM (inactive)	> 100 µM (inactive)
CN(C)c1ccc(/C=C(\NC(=O)c2ccccc2)C(=O)Nc2ccccc2C(=O)NCc2ccccc2)cc1	> 100 µM (inactive)	> 100 µM (inactive)	> 100 µM (inactive)	36.1 µM (inactive)	56.4 µM (inactive)	> 100 µM (inactive)	> 100 µM (inactive)	41.9 µM (inactive)	> 100	66.5 µM (inactive)	> 100 µM (inactive)	> 100 µM (inactive)	40.6 µM (inactive)	> 100 µM (inactive)	> 100 µM (inactive)	> 100 µM (inactive)	> 100 µM (inactive)	> 100 µM (inactive)	0.0955 µM (active)	> 100 µM (inactive)
COc1cc(OC)c2c(c1)OC(c1ccccc1)CC2=O (configuration not stated) [DIMETHYLPINOCEMBRIN]	> 10 µM (inactive)	> 10 µM (inactive)	> 10 µM (inactive)	> 10 µM (inactive)	> 10 µM (inactive)	> 10 µM (inactive)	> 10 µM (inactive)	> 10 µM (inactive)	> 10	> 10 µM (inactive)	> 10 µM (inactive)	> 10 µM (inactive)	> 10 µM (inactive)	> 10 µM (inactive)	> 10 µM (inactive)	> 10 µM (inactive)	> 10 µM (inactive)	> 10 µM (inactive)	> 10 µM (inactive)	> 10 µM (inactive)
Cc1[nH]n(C(=N)N)c(=O)c1CCO	> 100 µM (inactive)	> 100 µM (inactive)	> 100 µM (inactive)	> 100 µM (inactive)		> 100 µM (inactive)	> 100 µM (inactive)	> 100 µM (inactive)	> 100	> 100 µM (inactive)	> 100 µM (inactive)	> 100 µM (inactive)	> 100 µM (inactive)	> 100 µM (inactive)	> 100 µM (inactive)	> 100 µM (inactive)	> 100 µM (inactive)	> 100 µM (inactive)	> 100 µM (inactive)	> 100 µM (inactive)
CC(=O)/N=C1\NC(=O)/C(=C/c2ccc(Cl)cc2Cl)N1C	> 100 µM (inactive)	56.6 µM (inactive)	> 100 µM (inactive)	> 100 µM (inactive)	7.76 µM (inactive)	17.6 µM (inactive)	74.6 µM (inactive)	35.7 µM (inactive)	27.9	77.4 µM (inactive)	> 100 µM (inactive)	87.7 µM (inactive)	0.277 µM (active)	83.8 µM (inactive)	> 100 µM (inactive)	> 100 µM (inactive)	> 100 µM (inactive)	> 100 µM (inactive)	58.1 µM (inactive)	
O=c1cccccc1O [TROPOLONE]	83.4 µM (inactive)	35.7 µM (inactive)	> 100 µM (inactive)	> 100 µM (inactive)	26.9 µM (inactive)	34.7 µM (inactive)	> 100 µM (inactive)	83 µM (inactive)	34		83.6 µM (inactive)	87.1 µM (inactive)	11.9 µM (inactive)	> 100 µM (inactive)	> 100 µM (inactive)	39.6 µM (inactive)	> 100 µM (inactive)	> 100 µM (inactive)	> 100 µM (inactive)	> 100 µM (inactive)
Cc1cc2nnc(C(N)=O)c(N)c2cc1C	> 100 µM (inactive)	30.1 µM (inactive)	> 100 µM (inactive)	> 100 µM (inactive)	> 100 µM (inactive)	> 100 µM (inactive)	> 100 µM (inactive)	> 100 µM (inactive)	> 100	> 100 µM (inactive)	> 100 µM (inactive)	> 100 µM (inactive)	> 100 µM (inactive)	26.2 µM (inactive)	64.7 µM (inactive)	> 100 µM (inactive)	> 100 µM (inactive)	> 100 µM (inactive)	12.9 µM (inactive)	
COc1ccc(NC(=S)C#N)cc1	> 100 µM (inactive)	> 100 µM (inactive)	> 100 µM (inactive)	> 100 µM (inactive)		> 100 µM (inactive)	> 100 µM (inactive)	> 100 µM (inactive)	> 100	> 100 µM (inactive)	> 100 µM (inactive)	> 100 µM (inactive)	53 µM (inactive)	97.3 µM (inactive)	> 100 µM (inactive)	> 100 µM (inactive)	> 100 µM (inactive)	> 100 µM (inactive)	> 100 µM (inactive)	> 100 µM (inactive)
O=C(O)CN1CCNCCN(CC(=O)O)CCNCC1	19.9 µM (inactive)	> 100 µM (inactive)	> 85.1 µM (inactive)	> 73.3 µM (inactive)	5.14 µM (inactive)	79.4 µM (inactive)	> 100 µM (inactive)	5.28 µM (inactive)	9.29	> 100 µM (inactive)	> 100 µM (inactive)	> 85.5 µM (inactive)	3.41 µM (inactive)	82.4 µM (inactive)	> 100 µM (inactive)	6.64 µM (inactive)	10.9 µM (inactive)	44.4 µM (inactive)	> 21.5 µM (inactive)	
CCN(CC)c1ccc2cc(C(N)=O)/c(=N/c3ccc(F)cc3)oc2c1	77.1 µM (inactive)	39.5 µM (inactive)	> 100 µM (inactive)	> 100 µM (inactive)	> 100 µM (inactive)	46.1 µM (inactive)	14.5 µM (inactive)	> 100 µM (inactive)	59.8		45.9 µM (inactive)	> 100 µM (inactive)	> 100 µM (inactive)	18.7 µM (inactive)	35.7 µM (inactive)	> 100 µM (inactive)	> 100 µM (inactive)	13.4 µM (inactive)	20.4 µM (inactive)	> 100 µM (inactive)

From ChEMBL document CHEMBL1201862, “PubChem BioAssay data set” (2004)
